Measurements: publication PMC6389928, “Biomolecular Interaction, Anti-Cancer and Anti-Angiogenic Properties of Cobalt(III) Schiff Base Complexes” (Scientific Reports, 2019)
Like-named read-outs stand apart in the source and are kept apart here.

What was measured:
[1] = test system: CT-DNA; assay: Electronic absorption titration of the complexes with CT-DNA; format: binding; conditions: for intrinsic binding constant Kb: CT-DNA, plot of [DNA]/(εa−εf) vs [DNA]; for percentage of hypochromism (% H) / red shift: absorption spectra on incremental addition of CT-DNA
Protocol: The absorption spectra of the complexes 1 and 2 were measured in presence and absence of CT-DNA, and the results are shown in Fig. 2.
The value of DNA binding constant (Kb) of the complexes 1 and 2 were calculated using the equation[32], [DNA]/(εa−εf)=[DNA]/(ε0−εf)+1/Kb(ε0−εf) where [DNA] is the concentration of DNA expressed in base pairs; εa is called as apparent extinction coefficient which is determined by calculating Aobs/[complex], εf and ε0 are the apparent free and fully-bound cobalt(III) complex extinction coefficients.
The intrinsic binding constants Kb of complexes 1 and 2 were calculated from the plot of [DNA]/ (εa-εf) versus [DNA] the values are shown in Table 1. […] As both the complexes intercalated with DNA, it is expected that salicylaldehyde aromatic moiety is involved in the intercalation. […] This is due to the presence of additional aromatic phenyl ring in the salophen Schiff base ligand in complex 2 which enhanced stacking interaction between salicylaldehyde aromatic moiety and DNA bases.
Concentrated stock solution of DNA was prepared in PBS and sonicated for 25 cycles, where in each cycle consisted of 30 seconds with 1 min intervals. The DNA concentration per nucleotide was determined by electronic absorption spectroscopy using the known molar extinction coefficient value of 6600 M^−1 cm^−1 at 260 nm[79].
The stock solutions were prepared by dissolving the complexes 1 and 2 in an aqueous solution of DMSO as the co-solvent, and then diluted suitably with the corresponding buffer to the required concentrations for all the experiments. The final DMSO concentration never exceeded 0.5%. For absorption and emission spectral experiments, the DNA solutions were pre-treated with the solutions of metal complexes to ensure no change in the metal complex concentrations.
Absorption studies were performed by maintaining the constant concentration of both the complexes and varying the CT-DNA concentration. An equal amount of CT-DNA was added to the complexes and the reference solution to eliminate the absorbance of CT-DNA itself.

[2] = biological target: BSA (Bos taurus, UniProt P02769); conditions: for Quenching Constant (kq): τ0 assumed 10^−8 s; for ∆G° / ∆H° / ∆S°: BSA binding; for ∆H° / ∆S°: van't Hoff plot 285-299 K
Protocol: The obtained fluorescence quenching results were analyzed using the Stern-Volmer eqation, F0/F=1+Ksv[Q]kq=Ksv/τ0 where F0 and F are the fluorescence emission intensities of BSA in the absence and presence of complexes 1 and 2. KSV is the Stern-Volmer quenching constant, [Q] is concentration of the complexes 1 and 2, kq is the quenching rate constant of BSA and τ0 is the average lifetime of the emitter in the absence of quencher. The above equation was applied to determine KSV by linear regression of a plot of F0/F against [Q].
Normally, quenching can take place either as dynamic quenching, static quenching or a combination of both mechanisms. Static quenching refers to fluorophore-quencher complex formation in the ground state while dynamic quenching refers to a process in which the fluorophores and the quencher come into contact during the transient existence of the excited state[57],[58]. The plots of F0/F versus [Q]
For the static quenching process, the binding constant (Kb) and the number of binding sites (n) can be determined by the following equation[62] log[(F0−F)]/F=logKb+nlog[Q] where F0 and F are the fluorescence intensities of the emitter in the absence and presence of the quencher, respectively, and [Q] the concentration of the quencher. Thus, a plot of log F0 − F/F versus log [Q] (Fig. 3) was used to determine Kb.
In general, intermolecular interacting forces between a small molecule and a biomacromolecule include hydrogen bonding, van der Waals force, and electrostatic and hydrophobic interactions. The thermodynamic parameters, enthalpy change (ΔH°) and entropy change (ΔS°) of the binding are important for confirming the binding mode. For this reason, these thermodynamic parameters have been calculated using the equation, lnKb=−ΔH°/RT+ΔS°/RΔG°=ΔH°−TΔS°=−RTInKb where Kb is the binding constant at the corresponding temperature, and R is the gas constant. The ΔH° and ΔS° values are calculated from the slope and intercept from plotting ln Kb versus 1/T (Fig. 3).
The concentration of BSA prepared in PBS buffer (pH = 7.4) was determined spectrophotometrically using the extinction coefficient of 43,800 M^−1 cm^−1 at 280 nm[80]. The fluorescence spectra of BSA were recorded at room temperature with an excitation wavelength of BSA at 280 nm and the emission at 350 nm by keeping the concentration of BSA constant (1.35 × 10^−[…]) while increasing the cobalt(III) complex concentration regularly.

Sequence of BSA (P02769 25-607): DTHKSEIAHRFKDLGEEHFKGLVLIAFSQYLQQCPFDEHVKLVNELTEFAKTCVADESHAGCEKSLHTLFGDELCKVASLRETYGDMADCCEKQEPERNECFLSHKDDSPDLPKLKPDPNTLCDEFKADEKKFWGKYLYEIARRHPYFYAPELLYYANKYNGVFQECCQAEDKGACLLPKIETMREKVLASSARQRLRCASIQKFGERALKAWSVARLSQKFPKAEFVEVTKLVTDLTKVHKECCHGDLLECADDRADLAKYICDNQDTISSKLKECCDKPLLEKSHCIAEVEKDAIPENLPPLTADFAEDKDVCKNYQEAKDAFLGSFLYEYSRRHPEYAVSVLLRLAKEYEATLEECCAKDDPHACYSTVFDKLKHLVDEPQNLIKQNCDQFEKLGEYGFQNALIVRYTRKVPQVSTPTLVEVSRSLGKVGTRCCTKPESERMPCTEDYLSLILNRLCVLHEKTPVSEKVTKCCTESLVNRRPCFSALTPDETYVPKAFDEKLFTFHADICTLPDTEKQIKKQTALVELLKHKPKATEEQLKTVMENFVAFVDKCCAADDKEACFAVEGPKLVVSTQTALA

Compound | intrinsic binding constant Kb [1] [M⁻¹] | percentage of hypochromism (% H) [1] [%] | red shift [1] [nm] | Quenching Constant (kq) ([2]; 285 K) | Quenching Constant (kq) ([2]; 292 K) | Quenching Constant (kq) ([2]; 299 K) | ∆G° ([2]; 285 K) [kJ/mol] | ∆G° ([2]; 292 K) [kJ/mol] | ∆G° ([2]; 299 K) [kJ/mol] | ∆H° [2] | ∆S° [2]
CCCCCCCCCCCC[NH2+][Co-3]123([NH2+]CCCCCCCCCCCC)[O]c4ccccc4C=[N+]1c1ccccc1[N+]2=Cc1ccccc1[O]3.[O-][Cl+3]([O-])([O-])[O-] [Complex 2, trans-[Co(salophen)(DA)2](ClO4)] | 31500 | 36.81 | 13 | 1.4802 10^13 M^−1 s^−1 | 1.2245 10^13 M^−1 s^−1 | 1.0114 10^13 M^−1 s^−1 | -23.642 | -25.195 | -29.010 | +85.617 kJ mol^−1 | +383.182 J mol^−1 K^−1
CCCCCCCCCCCC[NH2+][Co-3]123([NH2+]CCCCCCCCCCCC)[O]c4ccccc4C=[N+]1CC[N+]2=Cc1ccccc1[O]3.[O-][Cl+3]([O-])([O-])[O-] [Complex 1, trans-[Co(salen)(DA)2](ClO4)] | 13100 | 31.54 | 10 | 1.6763 10^13 M^−1 s^−1 | 1.3531 10^13 M^−1 s^−1 | 1.0862 10^13 M^−1 s^−1 | -26.100 | -28.036 | -31.086 | +69.429 kJ mol^−1 | +335.928 J mol^−1 K^−1
